The values below come from US9745295B2, “Thiazole-substituted aminoheteroaryls as spleen tyrosine kinase inhibitors” (Merck Sharp & Dohme Corp., priority 2013, dated 2017).

The experiment addresses T1, recombinant human GST-SYK (Homo sapiens, UniProt P43405).
T1 construct: purchased Carna Biosciences 08-176
In words: Homogeneous Time-Resolved Fluorescence (HTRF) assay for the recombinant human Syk enzyme. The experiment is classed as biochemical. The note with it: recombinant human GST-SYK 5 pM, ATP 25 μM, read-out: rhSYK IC50. How it is done:
Homogeneous Time-Resolved Fluorescence (HTRF) Assay for the Recombinant Human Syk Enzyme
A recombinant GST-hSYK fusion protein was used to measure potency of compounds to inhibit human Syk activity. The recombinant human GST-SYK (Carna Biosciences #08-176) (5 pM final concentration) was incubated with various concentrations of the inhibitor diluted in DMSO (0.1% final concentration) for 10 minutes at room temperature in 15 mM Tris-HCl (pH 7.5), 0.01% tween 20, 2 mM DTT in 384 well plate format. To initiate the reaction the biotinylated substrate peptide (250 nM final concentration) that contains the phosphorylation site for Syk was added with magnesium (5 mM final concentration) and ATP (25 μM final concentration). Final volume of the reaction was 10 μL. Phosphorylation of the peptide was allowed to proceed for 45′ at room temperature. To quench the reaction and detect the phosphorylated product, 2 nM of a Europium-anti-phosphotyrosine antibody (Perkin Elmer #AD0161) and 70 nM SA-APC (Perkin-Elmer #CR130-100) were added together in 15 mM Tris pH 7.5, 40 mM EDTA, 0.01% tween 20. Final volume of the quenching solution was 10 μL.
The resulting HTRF signal was measured after 30 minutes on an EnVision (Perkin-Elmer) reader using a time-resolved fluorescence protocol. Table A below lists activities as IC50 values (nM) for representative compounds of the invention.
(In general: In TR-FRET formats the signal depends on donor and acceptor labels being close together.)

Broadly, the IC50 is the concentration that gives 50% inhibition. As to `Cc1cc(Nc2nccc(C)n2)cc(-c2cnc(C(C)(O)[C@H]3CC[C@H](C(=O)O)CC3)s2)n1` (single isomer, unassigned) [Example 4.11, (trans)-4-((R or S)-1-hydroxy-1-(5-{6-methyl-4-[(4-methylpyrimidin-2-yl)amino]pyridin-2-yl}-1,3-thiazol-2-yl)ethyl]cyclohexane carboxylic acid], the IC50 stood at 1.31 nM.

As to `CCCCOC(=O)[C@H]1CC[C@H](C(C)(O)c2ncc(-c3cc(Nc4nccc(OC)n4)cc(C)n3)s2)CC1` (single isomer, unassigned) [Example 4.7, butyl (trans)-4-((R or S)-1-hydroxy-1-(5-{4-[(4-methoxypyrimidin-2-yl)amino]-6-methylpyridin-2-yl}-1,3-thiazol-2-yl)ethyl]cyclohexane carboxylate], the half-maximal inhibitory concentration (IC50) amounted to 73.6 nM.

Consider `Cc1cc(Nc2nccc(C(F)(F)F)n2)cc(-c2cnc(C3(O)CCCc4cc(C(=O)O)ccc43)s2)n1` (single isomer, unassigned) [Example 4.25, (R or S)-5-hydroxy-5-[5-(6-methyl-4-{[4-(trifluoromethyl)pyrimidin-2-yl]amino}pyridin-2-yl)-1,3-thiazol-2-yl]-5,6,7,8-tetrahydronaphthalene-2-carboxylic acid], for which the IC50 worked out at 0.397 nM.

With `Cc1cc(Nc2cc(C(F)(F)F)ncn2)nc(-c2cnc(C3(O)CCC(C(=O)O)C(C)(C)C3)s2)c1` (single isomer, unassigned) [Example 1.6, (1S,4R or 1R,4S)-4-hydroxy-2,2-dimethyl-4-[5-(4-methyl-6-{[6-(trifluoromethyl)pyrimidin-4-yl]amino}pyridin-2-yl)-1,3-thiazol-2-yl] cyclohexane-carboxylic acid], the IC50 worked out at 0.441 nM.

Consider `COc1ncc(Nc2nccc(C(F)(F)F)n2)cc1-c1cnc([C@@]2(O)CC[C@H](C(=O)O)C(C)(C)C2)s1` (single isomer, unassigned) [Example 4.19, (1S,4R or 1R,4S)-4-hydroxy-4-[5-(2-methoxy-5-{[4-(trifluoromethyl)pyrimidin-2-yl]amino}pyridin-3-yl)-1,3-thiazol-2-yl]-2,2-dimethylcyclohexane carboxylic acid], for which the IC50 worked out at 4.13 nM.

Turning to `Cc1cc(Nc2nccnn2)cc(-c2cnc(C3(O)CCC3)s2)c1` [Example 3.2, 1-{5-[3-methyl-5-(1,2,4-triazin-3-ylamino)phenyl]-1,3-thiazol-2-yl}cyclobutanol], the IC50 amounted to 1010 nM.

For the compound `Cc1cc(Nc2nccc(C(F)(F)F)n2)cc(-c2cnc(C3(O)CCc4cc(C(=O)O)ccc43)s2)n1` [Example 4.26, (1R, or 1S)-1-hydroxy-1-[5-(6-methyl-4-{[4-(trifluoromethyl)pyrimidin-2-yl]amino}pyridin-2-yl)-1,3-thiazol-2-yl]-2,3-dihydro-1H-indene-5-carboxylic acid], the IC50 was determined as 0.0959 nM.

For the compound `Cc1cc(Nc2cnccn2)nc(-c2cnc(C3(O)CCCc4cc(C(=O)O)ccc43)s2)c1` (single isomer, unassigned) [Example 2.6, (R or S)-5-hydroxy-5-{5-[4-methyl-6-(pyrazin-2-ylamino)pyridin-2-yl]-1,3-thiazol-2-yl}-5,6,7,8-tetrahydronaphthalene-2-carboxylic acid], the IC50 is 0.0289 nM.

With `Cc1cc(Nc2cc(C(F)(F)F)ccn2)nc(-c2cnc(C3(O)CCC(C(=O)O)C(C)(C)C3)s2)n1` (single isomer, unassigned) [Example 1.11, (1S,4R or 1R,4S)-4-hydroxy-2,2-dimethyl-4-[5-(4-methyl-6-{[4-(trifluoromethyl)pyridin-2-yl]amino}pyrimidin-2-yl)-1,3-thiazol-2-yl] cyclohexane-carboxylic acid], the IC50 turned out to be 0.123 nM.

With `Cc1cc(Nc2nccc(C(F)(F)F)n2)cc(-c2cnc(C3(O)CCC3)s2)n1` [Example 2.1, 1-(5-(6-Methyl-4-((4-(trifluoromethyl)pyrimidin-2-yl)amino)pyridin-2-yl)thiazol-2-yl)cyclobutanol], the IC50 was found to be 26.4 nM.

For `Cc1cc(Nc2cc(C3CCCCC3)ncn2)nc(-c2cnc(C3(O)CCCc4cc(C(=O)O)ccc43)s2)c1` (single isomer, unassigned) [Example 2.10, (R or S)-5-(5-{6-[(6-cyclohexylpyrimidin-4-yl)amino]-4-methylpyridin-2-yl}-1,3-thiazol-2-yl)-5-hydroxy-5,6,7,8-tetrahydronaphthalene-2-carboxylic acid], the IC50 stood at 1.12 nM.

Take `CCOc1cc(Nc2nccc(C(F)(F)F)n2)cc(-c2cnc(C3(O)CCC3)s2)n1` [Example 4.1, 1-(5-(6-Ethoxy-4-((4-(trifluoromethyl)pyrimidin-2-yl)amino)pyridin-2-yl)thiazol-2-yl)cyclobutanol]: the IC50 came out at 111 nM.

Consider `COc1cc(Nc2nccc(C)n2)cc(-c2cnc(C(C)(O)[C@H]3CC[C@H](C(=O)O)CC3)s2)n1` (single isomer, unassigned) [Example 4.22, (trans)-4-((R or S)-1-hydroxy-1-(5-{6-methoxy-4-[(4-methylpyrimidin-2-yl)amino]pyridin-2-yl}-1,3-thiazol-2-yl)ethyl]cyclohexane carboxylic acid], for which the half-inhibitory concentration (IC50) was found to be 7.15 nM.

As to `CC1(C)CC(O)(c2ncc(-c3cccc(Nc4cc(C(F)(F)F)ncn4)n3)s2)CCC1C(=O)O` (single isomer, unassigned) [Example 3.6, (1S,4R or 1R,4S)-4-hydroxy-2,2-dimethyl-4-[5-(6-{[6-(trifluoromethyl)pyrimidin-4-yl]amino}pyridin-2-yl)-1,3-thiazol-2-yl]cyclohexanecarboxylic acid], the IC50 stood at 0.517 nM.

As for `Cc1cc(Nc2ncnc(C)n2)cc(-c2cnc([C@@]3(O)CC[C@H](C(=O)O)C(C)(C)C3)s2)c1` [Example 2.2, (1S,4R)-4-hydroxy-2,2-dimethyl-4-(5-{3-methyl-5-[(4-methyl-1,3,5-triazin-2-yl)amino]phenyl}-1,3-thiazol-2-yl)cyclohexanecarboxylic acid], the IC50 was determined as 52.3 nM.

For the compound `COc1cc(Nc2cc(C)cc(-c3cnc([C@@]4(O)CC[C@H](C(N)=O)C(C)(C)C4)s3)n2)ncn1` (single isomer, unassigned) [Example 3.1, (1S,4R or 1R,4S)-4-Hydroxy-4-(5-{6-[(6-methoxypyrimidin-4-yl)amino]-4-methylpyridin-2-yl}-1,3-thiazol-2-yl)-2,2-dimethylcyclohexanecarboxamide], the IC50 was 2.5 nM.

On to `CC(O)(c1ncc(-c2cc(Nc3nccc(C(F)(F)F)n3)cc(Cl)n2)s1)[C@H]1CC[C@H](C(=O)O)CC1` (single isomer, unassigned) [Example 4.23, (trans)-4-((R or S)-1-[5-(6-chloro-4-{[4-(trifluoromethyl)pyrimidin-2-yl]amino}pyridin-2-yl)-1,3-thiazol-2-yl]-1-hydroxyethyl} cyclohexanecarboxylic acid], for which the IC50 was 5.2 nM.

Consider `Cc1cc(Nc2cccc(C(F)(F)F)n2)cc(-c2cnc(C3(O)CCC(C(=O)O)C(C)(C)C3)s2)c1` (single isomer, unassigned) [Example 2.5, (1S,4R or 1R,4S)-4-hydroxy-2,2-dimethyl-4-[5-(3-methyl-5-{[6-(trifluoromethyl)pyridin-2-yl]amino}phenyl)-1,3-thiazol-2-yl]cyclohexane-carboxylic acid], for which the IC50 is 2820 nM.

Take `Cc1cc(Nc2cc(C(F)(F)F)ncn2)nc(-c2cnc(C3(O)CCC(C(N)=O)C(C)C3)s2)c1` (single isomer, unassigned) [Example 1.17, rel-(1S,2R,4R or S)-4-hydroxy-2-methyl-4-[5-(4-methyl-6-{[6-(trifluoromethyl)pyrimidin-4-yl]amino}pyridin-2-yl)-1,3-thiazol-2-yl] cyclohexane-carboxamide]: the IC50 was 1.25 nM.

As for `COc1cc(Nc2cc(C)cc(-c3cnc(C4(O)CCC(C(=O)O)C(C)(C)C4)s3)n2)ncn1` (single isomer, unassigned) [Example 3.4, (1S,4R or 1R,4S)-4-hydroxy-4-(5-{6-[(6-methoxypyrimidin-4-yl)amino]-4-methylpyridin-2-yl}-1,3-thiazol-2-yl)-2,2-dimethylcyclohexane-carboxylic acid], the IC50 was determined as 2.32 nM.

For the compound `Cc1ccnc(Nc2ccc(-c3cnc(C4(O)CCC(C(=O)O)CC4)s3)cc2C)c1` (stereo not drawn) [Example 4.13, cis-4-hydroxy-4-(5-{3-methyl-4-[(4-methylpyridin-2-yl)amino]phenyl}-1,3-thiazol-2-yl)cyclohexanecarboxylic acid], the IC50 was found to be 43.6 nM.

As for `Cc1cc(Nc2cc(C(F)(F)F)ncn2)nc(-c2cnc(C3(O)CCC(C(N)=O)C(C)C3)s2)c1` (single isomer, unassigned) [Example 1.18, rel-(1S,2R,4R or S)-4-hydroxy-2-methyl-4-[5-(4-methyl-6-{[6-(trifluoromethyl)pyrimidin-4-yl]amino}pyridin-2-yl)-1,3-thiazol-2-yl] cyclohexane-carboxamide], the IC50 came to 1.52 nM.

Take `Cc1cc(Nc2nccc(C(F)(F)F)n2)cc(-c2cnc(C(C)(O)c3ccc(C(=O)O)cc3)s2)n1` (single isomer, unassigned) [Example 1.20, (R or S)-4-(1-hydroxy-1-(5-(6-methyl-4-((4-(trifluoromethyl)pyrimidin-2-yl)amino)pyridin-2-yl)thiazol-2-yl)ethl)benzoic acid]: the IC50 worked out at 0.289 nM.
